Counter-ions that a name gives are not always drawn.

The target of the first series is T1, human 5-HT2c receptor (Homo sapiens, UniProt P28335).
T1 construct: expressed in transfected cells
T1 sequence (P28335 33-458): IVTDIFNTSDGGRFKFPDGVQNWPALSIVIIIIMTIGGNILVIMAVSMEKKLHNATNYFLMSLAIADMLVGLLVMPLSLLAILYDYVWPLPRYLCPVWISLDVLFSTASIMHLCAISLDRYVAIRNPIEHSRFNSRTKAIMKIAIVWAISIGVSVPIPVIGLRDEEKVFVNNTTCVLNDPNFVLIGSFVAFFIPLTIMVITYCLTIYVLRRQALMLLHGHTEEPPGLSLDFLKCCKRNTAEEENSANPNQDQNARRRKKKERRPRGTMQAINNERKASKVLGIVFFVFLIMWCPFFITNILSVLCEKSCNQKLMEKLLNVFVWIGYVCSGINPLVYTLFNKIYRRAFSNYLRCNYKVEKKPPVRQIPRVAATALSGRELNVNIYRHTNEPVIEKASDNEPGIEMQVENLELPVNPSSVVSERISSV
Put plainly: 5-HT2c receptor affinity assay (displacement of 3H-labelled 5-HT, Scintillation Proximity Assay). Particulars: membranes of HEK293 cells stably expressing human 5-HT2c receptor; 3H-5-HT; non-specific binding 5 μM mianserin. As to the method: The 5-HT2c receptor affinity of compounds in the Examples was determined in competition experiments, where the ability of each compound in serial dilution to displace ^3H-labelled 5-HT, bound to membranes prepared from a transfected HEK293 cell line stably expressing the human 5-HT2c receptor protein, was monitored by Scintillation Proximity Assay technology. Non-specific binding was defined using 5 μM mianserin.
On the technique in general: In a radioligand displacement assay an active substance lowers the binding of a labelled ligand.
As a reminder, the Ki is a measure of affinity in units of concentration, obtained from inhibition or displacement. Low readings indicate a stronger hold on the target, high ones a looser hold on the target. With `c1cncc(CCOc2cncc(N3CCNCC3)n2)c1` [Example 12, 2-(1-Piperazinyl)-6-[2-(3-pyridinyl)ethoxy]pyrazine], affinity was put at a Ki of 197 nM.
In the case of `c1ccc(COc2cncc(N3CCNCC3)n2)cc1` [Example 20, 2-(Benzyloxy)-6-(1-piperazinyl)pyrazine], the Ki is 28 nM.
In turn, `c1coc(-c2cncc(N3CCNCC3)n2)c1` [Example 15, 2-(2-Furyl)-6-(1-piperazinyl)pyrazine] gave a Ki of 616 nM.
The molecule `c1ccc(CCCCCOc2cncc(OC3CCNCC3)n2)cc1` [Example 48, 2-[(5-Phenylpentyl)oxy]-6-(4-piperidinyloxy)pyrazine] came in with an inhibition constant (Ki) of 37 nM.
The same measure, in the same setting: as for `CC(Oc1cncc(N2CCNCC2)n1)c1cccc(F)c1` (centres unmarked) [Example 2, 2-[1-(3-Fluorophenyl)ethoxy]-6-(1-piperazinyl)pyrazine], the figure is 8 nM; as for `FCCOc1cncc(N2CCNCC2)n1` [Example 23, 2-(2-Fluoroethoxy)-6-(1-piperazinyl)pyrazine], 478 nM.
Molecule `c1cc(OCc2cccs2)nc(N2CCNCC2)c1` [Example 18, 1-[6-(2-Thienylmethoxy)-2-pyridinyl]piperazine] registered a Ki of 92 nM. Against the preceding molecule, the Ki is about 5.2-fold lower.
The same measure, in the same setting: the result for `c1ccc(COc2ccnc(N3CCNCC3)n2)cc1` [Example 32, 4-(Benzyloxy)-2-(1-piperazinyl)pyrimidine] reads 48 nM.

Tested on in a further series: not given
Assay: not given
Particulars: controlled studies; cited from earlier work.
On to `CCN[C@@H](C)Cc1cccc(C(F)(F)F)c1` [dexfenfluramine], for which the weight reduction result is “exhibited weight reduction”.
For `CNCCC(Oc1ccc(C(F)(F)F)cc1)c1ccccc1` (centres unmarked) [fluoxetine], the weight reduction entry was “exhibited weight reduction”.

The test system of a further series is 5-HT2c receptor.
Assay: not given
Particulars: mice expressing the mutated inactive form of the 5-HT2c receptor; cited from earlier work.
For the molecule `Clc1cccc(N2CCNCC2)c1` [mCPP, m-chlorophenylpiperazine], the food intake entry was “lacks activity”.

A further series has as its target T2, 5-HT2c receptor (Mus musculus, UniProt P34968).
T2 construct: mice that express the normal 5-HT2c receptor; host or cells: mice, in vivo
T2 sequence (P34968 33-459): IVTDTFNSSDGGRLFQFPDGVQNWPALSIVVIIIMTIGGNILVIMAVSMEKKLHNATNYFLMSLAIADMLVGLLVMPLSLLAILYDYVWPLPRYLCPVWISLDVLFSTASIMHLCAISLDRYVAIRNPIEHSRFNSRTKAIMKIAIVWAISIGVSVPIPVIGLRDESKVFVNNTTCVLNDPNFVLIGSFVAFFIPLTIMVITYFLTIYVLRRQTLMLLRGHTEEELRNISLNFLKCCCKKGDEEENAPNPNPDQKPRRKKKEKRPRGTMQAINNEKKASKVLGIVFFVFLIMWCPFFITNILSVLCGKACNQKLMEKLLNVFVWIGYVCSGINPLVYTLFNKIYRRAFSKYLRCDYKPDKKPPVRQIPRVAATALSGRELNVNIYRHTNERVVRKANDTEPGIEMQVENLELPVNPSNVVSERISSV
Assay: not given
Particulars: mice that express the normal 5-HT2c receptor; cited from earlier work.
With `Clc1cccc(N2CCNCC2)c1` [mCPP, m-chlorophenylpiperazine], the food intake result is on record as “reduces food intake”.

Tested on in another series: not given
Assay: not given
The settings on record: obese subjects, after 2 weeks of treatment; cited from earlier work.
`Clc1cccc(N2CCNCC2)c1` [mCPP, m-chlorophenylpiperazine]: the body weight entry was “slight but sustained reduction in body weight”.

Tested on in the next series: not given
Assay: not given
Settings: not given
Broadly, the melting point is the temperature of the solid-liquid transition. Take `Fc1ccc(COc2cncc(N3CCNCC3)n2)cc1` [Example 42, 2-[(4-Fluorobenzyl)oxy]-6-(1-piperazinyl)pyrazine]: the melting point amounted to 183 °C.
Same read-out and setting: as for `c1ccc2c(c1)ccn2CCOc1cncc(N2CCNCC2)n1` (as salt: maleate) [Example 28, 2-[2-(1H-Indol-1-yl)ethoxy]-6-(1-piperazinyl)pyrazine], the figure is 160.5 to 163 °C; as for `Fc1cc(F)cc(COc2cncc(N3CCNCC3)n2)c1` (as salt: acetate) [Example 6, 2-[(3,5-Difluorobenzyl)oxy]-6-(1-piperazinyl)pyrazine], 70 to 72 °C; as for `COc1cccc(COc2cncc(N3CCNCC3)n2)c1` (as salt: acetate) [Example 4, 2-[(3-Methoxybenzyl)oxy]-6-(1-piperazinyl)pyrazine], 111 to 113 °C.
Same read-out and setting: as for `c1ccc2c(c1)OCCC2Oc1cncc(N2CCNCC2)n1` (centres unmarked) (as salt: maleate) [Example 26, 2-(3,4-Dihydro-2H-chromen-4-yloxy)-6-(1-piperazinyl)pyrazine], the figure is 179.5 to 182 °C.
On the same count and under the same terms, as for `COc1ccccc1COc1cncc(N2CCNCC2)n1` (as salt: hydrochloride) [Example 5, 2-[(2-Methoxybenzyl)oxy]-6-(1-piperazinyl)pyrazine], the figure is 171 to 173 °C; as for `c1ccc(-c2ccc(COc3cncc(N4CCNCC4)n3)cc2)cc1` (as salt: acetate) [Example 7, 2-([1,1′-Biphenyl]-4-ylmethoxy)-6-(1-piperazinyl)pyrazine], 102 to 104 °C.
Consider `c1ccc(CCOc2cncc(N3CCNCC3)n2)cc1` (as salt: maleate) [Example 14, 2-(2-Phenylethoxy)-6-(1-piperazinyl)pyrazine], for which the melting point was in the range of 166 to 168 °C.
On the same count and under the same terms, the result for `c1cc2c(cc1COc1cncc(N3CCNCC3)n1)OCO2` (as salt: acetate) [Example 3, 2-(1,3-Benzodioxol-5-ylmethoxy)-6-(1-piperazinyl)pyrazine] reads 124 to 127 °C; that for `c1ccc(COc2cncc(N3CCNCC3)n2)cc1` (as salt: maleate) [Example 20, 2-(Benzyloxy)-6-(1-piperazinyl)pyrazine], 155 to 156 °C.
The same measure, in the same setting: the result for `c1ccc2c(c1)CCCC2Oc1cncc(N2CCNCC2)n1` (centres unmarked) (as salt: acetate) [Example 9, 6-(1-Piperazinyl)-2-pyrazinyl 1,2,3,4-tetrahydro-1-naphthalenyl ether] reads 160 to 162 °C; that for `c1cncc(CCOc2cncc(N3CCNCC3)n2)c1` (as salt: acetate) [Example 12, 2-(1-Piperazinyl)-6-[2-(3-pyridinyl)ethoxy]pyrazine], 90 to 91 °C.
On the same count and under the same terms, as for `Clc1cccc(CCOc2cncc(N3CCNCC3)n2)c1` (as salt: acetate) [Example 8, 2-[2-(3-Chlorophenyl)ethoxy]-6-(1-piperazinyl)pyrazine], the figure is 118 to 119 °C; as for `c1cncc(COc2cncc(N3CCNCC3)n2)c1` (as salt: acetate) [Example 11, 2-(1-Piperazinyl)-6-(3-pyridinylmethoxy)pyrazine], 98 to 99 °C; as for `COc1cc(COc2cncc(N3CCNCC3)n2)cc(OC)c1` (as salt: maleate) [Example 68, 2-[(3,5-Dimethoxybenzyl)oxy]-6-(1-piperazinyl)pyrazine], 134 to 137 °C.
As to `c1ccc2c(CCOc3cncc(N4CCNCC4)n3)c[nH]c2c1` [Example 29, 2-[2-(1H-Indol-3-yl)ethoxy]-6-(1-piperazinyl)pyrazine], the melting point was 133 to 135 °C.
On the same count and under the same terms, as for `COc1cccc(CCOc2cncc(OC3CCNCC3)n2)c1` [Example 45, 2-[2-(3-Methoxyphenyl)ethoxy]-6-(4-piperidinyloxy)pyrazine], the figure is 86 to 87 °C; as for `COc1ccc(CCOc2cncc(N3CCNCC3)n2)cc1` (as salt: maleate) [Example 69, 2-[2-(4-Methoxyphenyl)ethoxy]-6-(1-piperazinyl)pyrazine], 149 to 151 °C.
Molecule `FC(F)(F)c1ccc(COc2cncc(N3CCNCC3)n2)cc1` (as salt: acetate) [Example 10, 2-(1-Piperazinyl)-6-{[4-(trifluoromethyl)benzyl]oxy}pyrazine] had a melting point of 84 to 85 °C.

The values above are taken from patent US7247633B2, “Pyrimidine compounds and their use” (Biovitrum AB, priority 2000, dated 2007).
